Results: PMC11079024, “Identification of a family of species-selective complex I inhibitors as potential anthelmintics” (Nature Communications, 2024)
Where “and” joins values, the source holds several entries; their conditions need not be identical. Identical values can stand only once. Like-named read-outs stand apart in the source and are kept apart here.

Test system: anthelmintic/nematicide-resistant C. elegans mutant strains
Assay: microbe, parasite or virus in culture
Conditions: for LC50: Caenorhabditis elegans; for dose response data: mev-1 (tr355)
Excerpt: In addition to the Caenorhabditis elegans wild-type N2 strain, this work included the following C. elegans strains: CB1003 (kynu-1(e1003) X); anthelmintic-resistant strains—CB3474 (ben-1(e1880) III), CB193 (unc-29(e193) I), HY496 (bre-1(ye4) IV), RB2119 (acr-23(ok2804) V), JD608 (avr-14(ad1302) I; avr-15(ad1051) V; glc-1 (pk54) V), NM1968 (slo-1(js379) V), RP2635 (mev-1(tr355) III); benzimidazole-resistant CRISPR strains—ECA882 (ben-1(ean64) III), ECA917 (ben-1(ean98) III), ECA1075 (ben-1(ean143) III), ECA1080 (ben-1(ean148) III). This work also featured several additional free-living nematode strains: C. briggsae strain AF16, P. pacificus strain PS312, and P. hermaphrodita strain B178. The four CRISPR-generated benzimidazole-resistant C. elegans mutants were generously provided by Prof. Erik Andersen (Johns Hopkins University); PS312 and B178 were generously provided by Prof. Peter Roy (University of Toronto); all other strains were obtained from the Caenorhabditis Genetics Center (CGC, University of Minnesota). All strains were cultured and propagated at 20 °C on NGM (nematode growth medium) agar plates seeded with E. coli OP50 (Stiernagle, 2006)[56].
Liquid development and viability assays were adapted from a previously established chemical screening protocol (Burns et al.)[24]. In brief, a saturated culture of E. coli HB101 was concentrated 2-fold in liquid NGM and 40 μL of this suspension was distributed to each well of a 96-well flat-bottom culture plate. 0.5 μL chemical solution (or DMSO alone) was added to each well (1% DMSO v/v) using either a multi-channel pipette or a pinning tool (V&P Scientific). L1 worms synchronized from an embryo preparation performed the day prior were diluted to a concentration of ~2 worms/μL in M9 buffer; 10 μL worm suspension was then added to each well. Culture plates were sealed with parafilm and placed in a plastic container lined with wet paper towels to prevent evaporation. Containers were then incubated for 6 days at 20 °C with shaking at 165 rpm. Following incubation, 300 μL M9 was added to each well to decrease the turbidity of the HB101-NGM suspension. Single images of each microplate well were then taken on a Nikon Ti Eclipse inverted microscope (Nikon NIS Elements AR). Images were processed using Python scripts to isolate worm-associated pixels from background. Scores of worm development and viability were determined as the sum of worm-associated pixels in each well. Development/viability scores for each well were divided by the development /viability scores for the corresponding DMSO controls, resulting in a relative viability value for each chemical. At least three biological replicates were performed for each dose-response experiment; relative viability values were averaged across replicates.
Supplementary Table 2. Sensitivity of anthelmintic/nematicide-resistant strains to Class A, B, and C
benzimidazole complex I inhibitors.
LC50s were estimated from fitted dose-
response curves; all dose response data are the mean of at least three biological replicates.
Supplementary Table 2. Davie et al.

Cc1ccccc1OCCCCn1cnc2ccccc21 [Compound 7732524]
LC50 (read-out: C. elegans Development & Viability LC50, acr-23(ok2804)): 50.2 µM
LC50 (read-out: C. elegans Development & Viability LC50, avr-14(ad1302), avr-15(ad1051), glc-1(pk54)): 46.5 µM
LC50 (read-out: C. elegans Development & Viability LC50, ben-1(e1880)): 50 µM
LC50 (read-out: C. elegans Development & Viability LC50, bre-1(ye4)): 41.2 µM
LC50 (read-out: C. elegans Development & Viability LC50, mev-1(tr355)): 42.9 µM
LC50 (read-out: C. elegans Development & Viability LC50, slo-1(js379)): 31.4 µM
LC50 (read-out: C. elegans Development & Viability LC50, unc-29(e193)): 37.8 µM
dose response data (concentration step 1 of 13 (c108)): 0.998 and 1.000
dose response data (concentration step 3 of 13 (c110)): 0.989 and 1.000
dose response data (concentration step 4 of 13 (c111)): 1.000 and 0.845
dose response data (concentration step 5 of 13 (c112)): 1.000 and 0.955
dose response data (concentration step 6 of 13 (c113)): 1.000 and 0.835
dose response data (concentration step 7 of 13 (c114)): 1.000
dose response data (concentration step 8 of 13 (c115)): 1.000 and 0.746
